Molecular target: T1, hERG channel (Homo sapiens, UniProt Q12809)
T1 construct: host or cells: HEK293
Assay: hERG channel test - manual patch clamp assay
Assay type: cell-based
Settings: HEK293 cells stably transfected with hERG, tail current
Description: 4.7 hERG Channel Test—Manual Patch Clamp Assay
The aim of this assay is to determine the in-vitro effects of a test compound on hERG current ([…]) expressed in Human Embryonic Kidney (HEK) cells (evaluation of the blocking profile of test substance on the IKr-like potassium current mediated by hERG channel stably transfected in a human cell line), which is linked to cardiac safety.
The test substance is dissolved in pure dimethylsulfoxide (DMSO) by cold stirring to give a stock solution concentrated 333-fold as compared with the highest concentration to be tested. This stock solution is used to prepare the other stock solutions in DMSO. Each stock solution is used to prepare the solutions containing the final concentrations tested by dilution in extracellular solution (0.1, 1, 10 and 100 μM). Final concentration of DMSO should not not exceed 0.3%.
All formulations are prepared in glass containers.
If a slight opalescence persists at the highest concentration, a 50 μM (instead of 100 μM) concentration is tested.
DMSO diluted in extracellular solution (at the different concentrations used in the final test substance solutions) is used as vehicle.
The extracellular solution is constituted as follows (mM): K-gluconate: 4 mM/Na-gluconate: 145 mM/Mg-gluconate: 2 mM/Ca-gluconate: 3.5 mM/HEPES: 5 mM/glucose: 5 mM/mannitol: 20 mM. The pH is adjusted with NaOH to 7.40±0.05.
Human embryonic kidney (HEK293) cells are stably transfected with the hERG clone (Creacell) and are maintained at 37° C. in a 5% CO2/95% air incubator. Cells used for the study are transferred to an experimental chamber of approximately 2 mL which is maintained at a temperature of 35±0.5° C. by a thermoelectric device (Harvard Apparatus: Type TC-344B) and mounted on the platform of an inverted microscope (Olympus: Type IX-51 or Leica DMI3000 B). Cells are continuously superfused with Tyrode's solution constituted as follows (mM): NaCl: 145/KCl: 4/HEPES: 5/glucose: 5/CaCl2:1/MgCl2: 1.
Ionic currents from hERG-transfected cells are measured using the whole cell configuration of the patch clamp technique. Glass pipettes are pulled from borosilicate glass by a vertical puller (Sutter Instruments: Type P30). Pipette tip resistance is approximately 1.5 to 3.5 MΩ when filled with internal solution constituted as follows (mM): K-gluconate: 145/Mg-gluconate: 1/EGTA: 2/HEPES:5/K2ATP: 2.
The pipettes are connected to the input stage of a patch-clamp amplifier (Axon Instruments: Multiclamp 700B-1). Stimulation, data recording and analysis are performed using specialized Axon Instruments software (pClamp 9.2.0. or pClamp 10.3.0.2).
After rupture of the cell membrane (entering whole-cell mode), cells are stimulated every 10 seconds using the following protocol: 500 ms pulse to +10 mV from a holding potential of −80 mV followed by a 500 ms pulse to −40 mV during which tail current is measured.
Once the current under control conditions is stable, recordings are taken before (control) and after addition of the test substance. The effect of the test substance on tail current is monitored continuously until steady-state is reached. The peak tail current amplitude is averaged for 3 stimuli.
The following parameters are measured: • Cell capacitance (pF). • Peak tail current amplitude (pA).
Peak tail current measurements are normalized using the cell capacitance as an index of cell surface.
The cells will be considered as valid if cell capacitance <80 pF, access resistance <20 MΩ and holding current >−200 pA.
Results are expressed as absolute values and as percentage change from control (percentage of tail current inhibition).
The test substance is studied at 4 ascending concentrations on 3 hERG-transfected cells.
The concentration of test substance inducing 50% of inhibition (IC50) of tail current is determined, if possible, from each individual concentration-response curve. The equation is of the following form: […]

T1 sequence (Q12809 whole entry): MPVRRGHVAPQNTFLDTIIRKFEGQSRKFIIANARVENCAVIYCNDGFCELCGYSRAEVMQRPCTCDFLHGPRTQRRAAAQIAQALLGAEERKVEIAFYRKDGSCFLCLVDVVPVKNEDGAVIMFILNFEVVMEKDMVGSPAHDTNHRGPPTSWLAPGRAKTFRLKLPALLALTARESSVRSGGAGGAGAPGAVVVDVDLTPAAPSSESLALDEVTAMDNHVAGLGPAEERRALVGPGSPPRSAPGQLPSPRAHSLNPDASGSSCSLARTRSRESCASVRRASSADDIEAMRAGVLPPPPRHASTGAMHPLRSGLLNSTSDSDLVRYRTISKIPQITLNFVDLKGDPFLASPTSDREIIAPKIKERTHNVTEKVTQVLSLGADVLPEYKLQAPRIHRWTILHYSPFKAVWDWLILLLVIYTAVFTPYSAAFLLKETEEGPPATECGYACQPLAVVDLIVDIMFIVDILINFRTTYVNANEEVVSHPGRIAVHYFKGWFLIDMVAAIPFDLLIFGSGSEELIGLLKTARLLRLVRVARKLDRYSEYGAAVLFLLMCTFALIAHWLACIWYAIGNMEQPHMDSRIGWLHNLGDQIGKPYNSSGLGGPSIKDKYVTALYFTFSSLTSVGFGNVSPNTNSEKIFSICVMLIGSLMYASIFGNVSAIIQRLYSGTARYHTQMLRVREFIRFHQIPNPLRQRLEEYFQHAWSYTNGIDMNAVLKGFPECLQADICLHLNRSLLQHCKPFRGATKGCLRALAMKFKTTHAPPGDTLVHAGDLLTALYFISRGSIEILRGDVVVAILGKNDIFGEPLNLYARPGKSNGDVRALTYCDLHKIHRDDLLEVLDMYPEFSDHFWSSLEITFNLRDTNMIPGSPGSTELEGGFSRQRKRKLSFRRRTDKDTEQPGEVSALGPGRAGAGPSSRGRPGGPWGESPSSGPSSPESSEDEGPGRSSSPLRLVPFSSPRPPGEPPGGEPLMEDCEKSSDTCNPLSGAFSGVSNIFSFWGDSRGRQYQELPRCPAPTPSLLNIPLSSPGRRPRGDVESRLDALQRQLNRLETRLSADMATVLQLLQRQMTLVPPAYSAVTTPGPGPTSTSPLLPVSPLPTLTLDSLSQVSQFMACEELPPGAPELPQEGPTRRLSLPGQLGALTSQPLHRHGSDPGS

| SMILES | hERG Manual Patch Clamp Single dose PIN (10 μM) | IC50 |
| --- | --- | --- |
| COc1cc2nc(CCC(C)(C)O)cn2cc1NC(=O)c1cccn(C(F)F)c1=O [Compound 12, 1-(difluoromethyl)-N-[2-(3-hydroxy-3-methyl-butyl)-7-methoxy-imidazo[1,2-a]pyridin-6-yl]-2-oxo-pyridine-3-carboxamide] | −76.3% | 3.05 µM |
| CC(C)(O)CCc1cn2cc(NC(=O)c3cccc(C(F)(F)F)n3)c(C(N)=O)cc2n1 [Compound 31, 2-(3-hydroxy-3-methyl-butyl)-6-[[6-(trifluoromethyl)pyridine-2-carbonyl]amino]imidazo[1,2-a]pyridine-7-carboxamide] | −46.7% | 16.3 µM |
| CCOc1c(NC(=O)c2cccn(C)c2=O)cn2cc(CCC(C)(C)O)nc2c1F [Compound 38, N-[7-ethoxy-8-fluoro-2-(3-hydroxy-3-methyl-butyl)imidazo[1,2-a]pyridin-6-yl]-1-methyl-2-oxo-pyridine-3-carboxamide] | −30.0% | – |
| CCOc1c(NC(=O)c2cccn(C3CC3)c2=O)cn2cc(CCS(C)(=O)=O)nc2c1F [Compound 39, 1-cyclopropyl-N-[7-ethoxy-8-fluoro-2-(2-methylsulfonylethyl)imidazo[1,2-a]pyridin-6-yl]-2-oxo-pyridine-3-carboxamide] | −39.7% | > 10 µM |
| COc1cc2nc(CCC(C)(C)O)cn2cc1NC(=O)c1cccn(C2CC2)c1=O [Compound 5, 1-cyclopropyl-N-[2-(3-hydroxy-3-methyl-butyl)-7-methoxy-imidazo[1,2-a]pyridin-6-yl]-2-oxo-pyridine-3-carboxamide] | −25% | – |
| CNC(=O)c1cc2nc(CCC(C)(C)O)cn2cc1NC(=O)c1cccc(C(F)(F)F)n1 [Compound 2, 2-(3-hydroxy-3-methyl-butyl)-N-methyl-6-[[6-(trifluoromethyl)pyridine-2-carbonyl]amino]imidazo[1,2-a]pyridine-7-carboxamide] | −44.7% | 19.2 µM |
| CCOc1c(NC(=O)c2cccn(C3CC3)c2=O)cn2cc(CCC(C)(C)O)nc2c1F [Compound 37, 1-cyclopropyl-N-[7-ethoxy-8-fluoro-2-(3-hydroxy-3-methyl-butyl)imidazo[1,2-a]pyridin-6-yl]-2-oxo-pyridine-3-carboxamide] | −56.3% | 6.99 µM |
| COc1c(NC(=O)c2cccn(C3CC3)c2=O)cn2cc(CCC(C)(C)O)nc2c1F [Compound 42, 1-cyclopropyl-N-[8-fluoro-2-(3-hydroxy-3-methyl-butyl)-7-methoxy-imidazo[1,2-a]pyridin-6-yl]-2-oxo-pyridine-3-carboxamide] | −12% | > 92.3 µM |
| CCNC(=O)c1cc2nc(CCC(C)(C)O)cn2cc1NC(=O)c1cccc(C(F)(F)F)n1 [Compound 49, N-ethyl-2-(3-hydroxy-3-methylbutyl)-6-(6-(trifluoromethyl)picolinamido)imidazo[1,2-a]pyridine-7-carboxamide] | −17% | – |
| CC(C)(O)CCc1cn2cc(NC(=O)c3cccc(C(F)(F)F)n3)c(C(=O)NCC(F)F)cc2n1 [Compound 48, N-(2,2-difluoroethyl)-2-(3-hydroxy-3-methylbutyl)-6-(6-(trifluoromethyl)picolinamido)imidazo[1,2-a]pyridine-7-carboxamide] | −20.5% | – |

— patent US20220194938A1, “NOVEL COMPOUNDS AND PHARMACEUTICAL COMPOSITIONS THEREOF FOR THE TREATMENT OF INFLAMMATORY DISORDERS” (GALAPAGOS NV, priority 2019, published 2022)
